Source: ChEMBL document CHEMBL3425470, “Discovery of imidazopyridine derivatives as highly potent respiratory syncytial virus fusion inhibitors” (ACS Med Chem Lett, 2015)
≈ marks a conversion by molar mass, not a printed value.

How the values were obtained:
[1] = Antiviral activity against Respiratory syncytial virus A infected in human Hep2 cells assessed as reduction of virus-induced cytopathic effect after 6 days by CCK-8 assay; type: functional, cell-based, Respiratory syncytial virus type A; conditions: HEp-2, 144 h
[2] = Cytotoxicity against human Hep2 cells assessed as cell viability after 6 days by CCK-8 assay
[3] = Solubility of the compound in phosphate buffer at pH 6.5 after overnight incubation by LYSA method
[4] = Clearance in human liver microsomes at 1 uM
[5] = Clearance in mouse liver microsomes at 1 uM
in vitro = conditions: PAMPA
Description: Permeability of the compound at 150 uM by PAMPA

Cytochrome P450 3A4 = Cytochrome P450 3A4 (Homo sapiens, UniProt P08684); experiment: Inhibition of CYP3A4 in human liver microsomes by LC-MS/MS analysis
Chain of Cytochrome P450 3A4 (P08684 whole entry): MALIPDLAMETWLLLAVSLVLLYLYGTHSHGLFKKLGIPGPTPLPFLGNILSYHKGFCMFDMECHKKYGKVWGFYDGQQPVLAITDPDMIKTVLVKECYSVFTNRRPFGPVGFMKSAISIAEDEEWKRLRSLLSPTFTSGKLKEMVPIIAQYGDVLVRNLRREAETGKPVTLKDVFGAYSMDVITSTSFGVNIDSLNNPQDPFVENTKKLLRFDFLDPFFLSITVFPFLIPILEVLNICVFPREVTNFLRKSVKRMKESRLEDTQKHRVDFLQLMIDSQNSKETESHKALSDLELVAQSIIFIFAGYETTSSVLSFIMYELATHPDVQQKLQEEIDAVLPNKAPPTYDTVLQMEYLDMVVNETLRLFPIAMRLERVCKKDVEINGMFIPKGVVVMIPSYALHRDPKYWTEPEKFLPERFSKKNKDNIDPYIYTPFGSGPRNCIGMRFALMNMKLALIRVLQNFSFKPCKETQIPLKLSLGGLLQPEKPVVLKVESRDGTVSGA

Cytochrome P450 2C9 = Cytochrome P450 2C9 (Homo sapiens, UniProt P11712); experiment: Inhibition of CYP2C9 in human liver microsomes by LC-MS/MS analysis
Chain of Cytochrome P450 2C9 (P11712 whole entry): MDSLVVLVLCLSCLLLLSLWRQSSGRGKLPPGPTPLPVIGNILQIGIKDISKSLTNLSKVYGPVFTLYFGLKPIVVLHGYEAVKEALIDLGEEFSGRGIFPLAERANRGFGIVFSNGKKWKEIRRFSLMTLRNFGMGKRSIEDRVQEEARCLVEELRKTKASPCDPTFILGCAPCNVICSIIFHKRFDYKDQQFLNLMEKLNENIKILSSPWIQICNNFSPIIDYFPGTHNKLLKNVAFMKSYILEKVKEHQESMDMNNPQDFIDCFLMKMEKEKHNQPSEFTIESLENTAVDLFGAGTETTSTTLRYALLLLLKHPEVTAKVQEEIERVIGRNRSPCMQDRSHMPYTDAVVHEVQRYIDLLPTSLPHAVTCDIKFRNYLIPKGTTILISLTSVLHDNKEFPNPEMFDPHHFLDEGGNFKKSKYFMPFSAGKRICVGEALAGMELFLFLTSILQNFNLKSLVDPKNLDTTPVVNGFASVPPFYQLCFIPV

Cytochrome P450 2D6 = Cytochrome P450 2D6 (Homo sapiens, UniProt P10635); experiment: Inhibition of CYP2D6 in human liver microsomes by LC-MS/MS analysis
Chain of Cytochrome P450 2D6 (P10635 whole entry): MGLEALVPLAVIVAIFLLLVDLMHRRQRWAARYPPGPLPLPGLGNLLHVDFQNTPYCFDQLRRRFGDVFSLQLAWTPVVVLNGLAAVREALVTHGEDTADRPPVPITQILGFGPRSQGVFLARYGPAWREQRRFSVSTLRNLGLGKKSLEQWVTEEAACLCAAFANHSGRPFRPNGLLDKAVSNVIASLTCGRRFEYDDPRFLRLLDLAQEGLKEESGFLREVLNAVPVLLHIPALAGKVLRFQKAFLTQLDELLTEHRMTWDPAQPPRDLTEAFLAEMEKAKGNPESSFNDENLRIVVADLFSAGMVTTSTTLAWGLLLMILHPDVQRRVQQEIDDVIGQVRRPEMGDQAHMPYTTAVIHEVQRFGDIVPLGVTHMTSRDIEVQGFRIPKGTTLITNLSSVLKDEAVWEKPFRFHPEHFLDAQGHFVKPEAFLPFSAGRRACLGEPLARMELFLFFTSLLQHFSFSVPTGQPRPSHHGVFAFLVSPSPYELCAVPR

O=c1n(Cc2nc3ccccc3n2CCCCO)c2cnccc2n1C1CC1
EC50 [1]: 28 nM

Cc1ccc2nc(Cn3c(=O)n(C4CC4)c4ccncc43)c(CCCCO)n2c1
EC50 [1]: 217 nM
CC50 at 144 h ([2]; Hep2 cells): > 100 µM

O=c1n(Cc2nc3ccc(F)cn3c2CCCCO)c2cnccc2n1C1CC1
EC50 [1]: 96 nM
CC50 at 144 h ([2]; Hep2 cells): > 100 µM

O=c1n(Cc2nc3ccc(Cl)cn3c2CCCCO)c2cnccc2n1C1CC1
EC50 [1]: 422 nM
CC50 at 144 h ([2]; Hep2 cells): > 100 µM

O=c1n(Cc2nc3ccc(C(F)(F)F)cn3c2CCCCO)c2cnccc2n1C1CC1
EC50 [1]: 2890 nM
CC50 at 144 h ([2]; Hep2 cells): > 100 µM

Cc1ccn2c(CCCCO)c(Cn3c(=O)n(C4CC4)c4ccncc43)nc2c1
EC50 [1]: 6 nM
CC50 at 144 h ([2]; Hep2 cells): > 100 µM

CCc1ccn2c(CCCCO)c(Cn3c(=O)n(C4CC4)c4ccncc43)nc2c1
EC50 [1]: 7 nM
CC50 at 144 h ([2]; Hep2 cells): > 100 µM

O=c1n(Cc2nc3cc(F)ccn3c2CCCCO)c2cnccc2n1C1CC1
EC50 [1]: 23 nM
CC50 at 144 h ([2]; Hep2 cells): > 100 µM

O=c1n(Cc2nc3ccccn3c2CCCCO)c2cnccc2n1C1CC1
EC50 [1]: 17 nM
CC50 at 144 h ([2]; Hep2 cells): > 100 µM

O=c1n(Cc2nc3cc(C(F)(F)F)ccn3c2CCCCO)c2cnccc2n1C1CC1
EC50 [1]: 217 nM
CC50 at 144 h ([2]; Hep2 cells): > 100 µM

O=c1n(Cc2nc3cc(Cl)ccn3c2CCCCO)c2cnccc2n1C1CC1
EC50 [1]: 7 nM
CC50 at 144 h ([2]; Hep2 cells): > 100 µM
solubility [3]: 20 µg/mL (≈ 48.6 µM)
CLhep predicted at 1 µM [4]: 11.5 mL/min/kg
CLhep predicted at 1 µM [5]: 80 mL/min/kg
Papp at 150 µM (in vitro): 3.1 ×10⁻⁶ cm/s

O=c1n(Cc2cn3ccc(Cl)cc3n2)c2cnccc2n1C1CC1
EC50 [1]: 3060 nM
CC50 at 144 h ([2]; Hep2 cells): 22.3 µM

N#Cc1c(Cn2c(=O)n(C3CC3)c3ccncc32)nc2cc(Cl)ccn12
EC50 [1]: 86 nM
CC50 at 144 h ([2]; Hep2 cells): 22.5 µM

O=c1n(Cc2nc3cc(Cl)ccn3c2CO)c2cnccc2n1C1CC1
EC50 [1]: 1930 nM
CC50 at 144 h ([2]; Hep2 cells): > 100 µM

O=C(O)c1c(Cn2c(=O)n(C3CC3)c3ccncc32)nc2cc(Cl)ccn12
EC50 [1]: 25500 nM
CC50 at 144 h ([2]; Hep2 cells): > 100 µM

O=C(NCCO)c1c(Cn2c(=O)n(C3CC3)c3ccncc32)nc2cc(Cl)ccn12
EC50 [1]: 2230 nM
CC50 at 144 h ([2]; Hep2 cells): > 100 µM

CS(=O)(=O)CCNC(=O)c1c(Cn2c(=O)n(C3CC3)c3ccncc32)nc2cc(Cl)ccn12
EC50 [1]: 82 nM
CC50 at 144 h ([2]; Hep2 cells): > 100 µM

O=C(O)/C=C/c1c(Cn2c(=O)n(C3CC3)c3ccncc32)nc2cc(Cl)ccn12
EC50 [1]: 207 nM
CC50 at 144 h ([2]; Hep2 cells): > 100 µM

O=C(O)CCc1c(Cn2c(=O)n(C3CC3)c3ccncc32)nc2cc(Cl)ccn12
EC50 [1]: 53 nM
CC50 at 144 h ([2]; hep-2): > 100 µM
solubility [3]: 541 µg/mL (≈ 1310 µM)
CLhep predicted at 1 µM [5]: 9.1 mL/min/kg
IC50 (Cytochrome P450 3A4): > 50 µM
IC50 (Cytochrome P450 2C9): > 50 µM
IC50 (Cytochrome P450 2D6): > 50 µM
Papp at 150 µM (in vitro): 0.3 ×10⁻⁶ cm/s

NC(=O)CCc1c(Cn2c(=O)n(C3CC3)c3ccncc32)nc2cc(Cl)ccn12
EC50 [1]: 5 nM
CC50 at 144 h ([2]; Hep2 cells): > 100 µM
solubility [3]: 87 µg/mL (≈ 212 µM)
CLhep predicted at 1 µM [4]: 13.5 mL/min/kg
CLhep predicted at 1 µM [5]: 59 mL/min/kg
Papp at 150 µM (in vitro): 2.5 ×10⁻⁶ cm/s

O=C(CCc1c(Cn2c(=O)n(C3CC3)c3ccncc32)nc2cc(Cl)ccn12)NCCO
EC50 [1]: 10 nM
CC50 at 144 h ([2]; Hep2 cells): > 100 µM
solubility [3]: 107 µg/mL (≈ 235 µM)
CLhep predicted at 1 µM [4]: 2.9 mL/min/kg
CLhep predicted at 1 µM [5]: 47 mL/min/kg
Papp at 150 µM (in vitro): 0.96 ×10⁻⁶ cm/s

CS(=O)(=O)NC(=O)CCc1c(Cn2c(=O)n(C3CC3)c3ccncc32)nc2cc(Cl)ccn12
EC50 [1]: 46 nM
CC50 at 144 h ([2]; Hep2 cells): > 100 µM

CS(=O)(=O)CCc1c(Cn2c(=O)n(C3CC3)c3ccncc32)nc2cc(Cl)ccn12
EC50 [1]: 6 nM
CC50 at 144 h ([2]; Hep2 cells): > 100 µM
solubility [3]: 59 µg/mL (≈ 132 µM)
CLhep predicted at 1 µM [4]: 2.5 mL/min/kg
CLhep predicted at 1 µM [5]: 35 mL/min/kg
IC50 (Cytochrome P450 3A4): > 50 µM
IC50 (Cytochrome P450 2C9): > 50 µM
IC50 (Cytochrome P450 2D6): > 50 µM
Papp at 150 µM (in vitro): 3.6 ×10⁻⁶ cm/s

CCS(=O)(=O)CCc1c(Cn2c(=O)n(C3CC3)c3ccncc32)nc2cc(Cl)ccn12
EC50 [1]: 3 nM
CC50 at 144 h ([2]; hep-2): > 100 µM
solubility [3]: 46 µg/mL (≈ 100 µM)
CLhep predicted at 1 µM [4]: 4.6 mL/min/kg
CLhep predicted at 1 µM [5]: 62 mL/min/kg
IC50 (Cytochrome P450 3A4): > 50 µM
IC50 (Cytochrome P450 2C9): > 50 µM
IC50 (Cytochrome P450 2D6): > 50 µM
Papp at 150 µM (in vitro): 2.6 ×10⁻⁶ cm/s

CCCCNc1c(Cn2c(=O)n(C3CC3)c3ccncc32)nc2cc(Cl)ccn12
EC50 [1]: 41 nM
CC50 at 144 h ([2]; Hep2 cells): > 100 µM

O=c1n(Cc2nc3cc(Cl)ccn3c2NC2CCCCC2)c2cnccc2n1C1CC1
EC50 [1]: 72 nM
CC50 at 144 h ([2]; Hep2 cells): > 100 µM

O=c1n(Cc2nc3cc(Cl)ccn3c2NCCN2CCOCC2)c2cnccc2n1C1CC1
EC50 [1]: 83 nM
CC50 at 144 h ([2]; Hep2 cells): > 100 µM

O=c1n(Cc2nc3cc(Cl)ccn3c2CNCCO)c2cnccc2n1C1CC1
EC50 [1]: 683 nM
CC50 at 144 h ([2]; Hep2 cells): > 100 µM

CS(=O)(=O)c1ccc(-c2c(Cn3c(=O)n(C4CC4)c4ccncc43)nc3cc(Cl)ccn23)cc1
EC50 [1]: 89 nM
CC50 at 144 h ([2]; Hep2 cells): > 100 µM
